Test [1] concerns MCF-7 cells. As to the kind of experiment: MTT cytotoxicity assay on MCF-7 cells. In kind it is cell-based, human. Particulars: for IC50: MTT, 48 h incubation, IC50 ± SD, three experiments in triplicate; for Selectivity Index (SI): SI = IC50 on MCF-10 cells/IC50 on MCF-7 cells. The protocol: (§1) In this study, we wondered whether semi-synthetic compounds have potential antitumoral properties against BC. Therefore, we were interested in investigating the effect of the compounds on the MCF-7 cell line. Firstly, we studied the effect on cell viability using a colorimetric MTT assay, which was performed to quantify the cytotoxic activity; each compound was evaluated at different concentrations (500−100−20−4−0.8−0.16−0.032−0 µM). Daunorubicin was also used as a positive control for comparison with a reference drug. […] Although the MCF-10 cell line provides a useful selectivity model, it may not fully represent the varying sensitivities of different normal cell types within a multicellular organism. The SI value indicates the ratio of toxicity in mammalian host cells to that in a tumoral cell. The data obtained in response to different concentrations of compounds were used to calculate the IC50 and corresponding SI values, as shown in Table 1.
(§2) The American Type Culture Collection (Rockville, MD, USA) supplied the following experimental cell lines: MCF-7, a human breast cancer cell line, and MCF-10A, a human epithelial breast cell line (ATCC N° CRL-10317). Both cell lines were grown in DMEM-F12 medium containing 10% FCS, 100 U/mL penicillin, 100 μg/mL streptomycin, and 1 mM glutamine. The cells were seeded at a concentration of 100 μL per well at a plating density of 3 × 10^3 cells/well and incubated for 24 h at 37 °C under 5% humidified CO2 to enable attachment. The cells were then treated with varying concentrations of synthesized compounds for […] under the same conditions. The compound stock solution was prepared in DMSO, and the final concentration of DMSO was kept at 0.1%. Control cultures were treated with only 1% ethanol.
(§3) Cells from the MCF-7 and MCF-10 lines were seeded into 96-well plates at a density of 1 × 10^4 per well. After 24 h, the compounds were added at increasing concentrations (500–100–20-4–0.8–0.16–0.032–0 µM), and the cells were incubated at 37 °C in a humidified 5% CO2/95% air mixture for 48 h. Following incubation, the cells were washed twice with PBS, and 100 μL of 0.5 mg/mL MTT solution was added to each well. After 2 h of incubation, the MTT solution was removed, and the formazan crystals were dissolved in 50 μL of DMSO per well. Absorbance was then measured at 570 nm using a microplate ELISA reader. IC50 values, determined from three independent experiments conducted in triplicate, were calculated using SigmaPlot® software (version 11.0). The selectivity index (SI) of each compound in each cell line was determined by calculating the ratio of the IC50 values for MCF-10 and cancer cell lines. Compounds were considered selective if SI values were equal to or greater than 3 [46].
A general note: Tetrazolium assays rely on reduction of a dye to a coloured formazan, in cell work by metabolically active cells.

Test [2] has as its system MCF-10 cells. Put plainly: MTT cytotoxicity assay on non-tumoral MCF-10 cells. In kind it is cell-based, human. The conditions noted are these: IC50 ± SD, three experiments in triplicate. On the procedure:
as §1, §2, §3

[3] abbreviates: Homo sapiens, MCF10, 48 h incubation.

In general, IC50 refers to the concentration that inhibits the measured activity by half. The low end stands for inhibition by little substance, the high end for a need for much substance.

Take `COc1ccc([C@@H](O)[C@H]2C(C)=CCC3C(C)(C)CCC[C@@]32C)c(OC)c1` (stereo partly drawn) [Compound 10a, (1S)-(2,4-Dimethoxyphenyl)((1S,8aS)-2,5,5,8a-tetramethyl-1,4,4a,5,6,7,8,8a-octahydronaphthalen-1-yl) methanol]: the IC50 in test [1] (Homo sapiens, MCF7) was determined as 74.2 ± 7 µM; in test [2] (setting [3]) it was 53.2 ± 10 µM. In test [1], the “Selectivity Index (SI)” value is on record as 0.7.
Consider `COc1ccc(OC)c([C@@H](O)[C@H]2C(C)=CCC3C(C)(C)CCC[C@@]32C)c1` (stereo partly drawn) [Compound 10b, (1S)-(2,5-Dimethoxyphenyl)((1S,8aS)-2,5,5,8a-tetramethyl-1,4,4a,5,6,7,8,8a-octahydronaphthalen-1-yl)methanol], for which the 50% inhibitory concentration (IC50) in test [1] (Homo sapiens, MCF7) stood at 131 ± 26.6 µM; in test [2] (setting [3]) it was 10.1 ± 3 µM. The “Selectivity Index (SI)” value in test [1] was 0.1.
In the case of `COc1cc(OC)cc([C@@H](O)[C@H]2C(C)=CCC3C(C)(C)CCC[C@@]32C)c1` (stereo partly drawn) [Compound 10d, (1S)-(3,5-Dimethoxyphenyl)((1S,8aS)-2,5,5,8a-tetramethyl-1,4,4a,5,6,7,8,8a-octahydronaphthalen-1-yl)methanol], the IC50 was 126 ± 11.5 µM in test [1] (Homo sapiens, MCF7) and 12.3 ± 3.1 µM in test [2] (setting [3]). Also, in test [1], the “Selectivity Index (SI)” value was 0.1.
For `COc1ccc(C[C@H]2C(C)=CCC3C(C)(C)CCC[C@@]32C)c(OC)c1` (stereo partly drawn) [Compound 11a, (4aS,5S)-5-(2,4-Dimethoxybenzyl)-1,1,4a,6-tetramethyl-1,2,3,4,4a,5,8,8a-octahydronaphthalene], in that order: 75.2 ± 11.3 µM, 76.7 ± 3 µM and 1.0.
On to `COc1ccc(OC)c(C[C@H]2C(C)=CCC3C(C)(C)CCC[C@@]32C)c1` (stereo partly drawn) [Compound 11b, (4aS,5S)-5-(2,5-Dimethoxybenzyl)-1,1,4a,6-tetramethyl-1,2,3,4,4a,5,8,8a-octahydronaphthalene], for which the IC50 in test [1] (Homo sapiens, MCF7) was found to be 133 ± 14.9 µM; in test [2] (setting [3]), 54.4 ± 3.5 µM. Besides, in test [1], the “Selectivity Index (SI)” value is 0.4.
Taken in the same sequence, the figures for `COc1ccc(C(=O)[C@H]2C(C)=CCC3C(C)(C)CCC[C@@]32C)c(OC)c1` (stereo partly drawn) [Compound 12a, (2,4-Dimethoxyphenyl)((1S,8aS)-2,5,5,8a-tetramethyl-1,4,4a,5,6,7,8,8a-octahydronaphthalen-1-yl)methanone] were 56.2 ± 7.3 µM, 45.4 ± 4.8 µM and 0.8.
On to `COc1ccc(OC)c(C(=O)[C@H]2C(C)=CCC3C(C)(C)CCC[C@@]32C)c1` (stereo partly drawn) [Compound 12b, (2,5-Dimethoxyphenyl)((1S,8aS)-2,5,5,8a-tetramethyl-1,4,4a,5,6,7,8,8a-octahydronaphthalen-1-yl)methanone], for which the IC50 stood at 88.1 ± 19.9 µM in test [1] (Homo sapiens, MCF7) and 72.7 ± 4.3 µM in test [2] (setting [3]). Moreover, the “Selectivity Index (SI)” value in test [1] amounted to 0.8.
Consider `COc1cc(OC)cc(C(=O)[C@H]2C(C)=CCC3C(C)(C)CCC[C@@]32C)c1` (stereo partly drawn) [Compound 12d, (3,5-Dimethoxyphenyl)((1S,8aS)-2,5,5,8a-tetramethyl-1,4,4a,5,6,7,8,8a-octahydronaphthalen-1-yl)methanone], for which the IC50 in test [1] (Homo sapiens, MCF7) amounted to 112 ± 25.4 µM; in test [2] (setting [3]), 107 ± 15.4 µM. Moreover, in test [1], the “Selectivity Index (SI)” value was found to be 1.0.
Taken in the same sequence, the figures for `COc1ccc(/C=C2\C(C)=CCC3C(C)(C)CCC[C@]23C)c(OC)c1` (stereo partly drawn) [Compound 13a, (4aS)-5-((E)-2,4-Dimethoxybenzylidene)-1,1,4a,6-tetramethyl-1,2,3,4,4a,5,8,8a-octahydronaphthalene] were 48.9 ± 8 µM, 70.9 ± 15.1 µM and 1.4.
Consider `COc1cc(OC)c2c(c1)[C@]1(C)CCC3C(C)(C)CCC[C@]3(C)C1=C2` (stereo partly drawn) [Compound 14a, (6aR,11bS)-8,10-Dimethoxy-4,4,6a,11b-tetramethyl-2,3,4,4a,5,6,6a,11b-octahydro-1H-benzo[a]fluorene], for which the IC50 in test [1] (Homo sapiens, MCF7) was determined as 8.4 ± 1.8 µM; in test [2] (setting [3]), 52.4 ± 3.5 µM. The “Selectivity Index (SI)” value in test [1] came to 6.3.
Consider `COc1cc2c(c(OC)c1)[C@]1(C)CCC3C(C)(C)CCC[C@]3(C)C1=C2` (stereo partly drawn) [Compound 14d, (6aR,11bS)-7,9-Dimethoxy-4,4,6a,11b-tetramethyl-2,3,4,4a,5,6,6a,11b-octahydro-1H-benzo[a]fluorene], for which the IC50 in test [1] (Homo sapiens, MCF7) was 120 ± 29.8 µM; in test [2] (setting [3]) it was 31.4 ± 4.6 µM. The “Selectivity Index (SI)” value in test [1] is listed as 0.3.
Take “(4aS,5S)-5-(3,5-Dimethoxybenzyl)-1,1,4a,6-tetramethyl-1,2,3,4,4a,5,8,8a-octahydronaphthalene [Compound 11d]”: the IC50 came to 187 ± 9 µM in test [1] and 165 ± 12.5 µM in test [2] (48 h incubation).

These data come from publication PMC12111648, “New Dimethoxyaryl-Sesquiterpene Derivatives with Cytotoxic Activity Against MCF-7 Breast Cancer Cells: From Synthesis to Topoisomerase I/II Inhibition and Cell Death Mechanism Studies” (International Journal of Molecular Sciences, 2025).
